Results: patent US5488060A, “Substituted thiadiazoles, compositions containing them and their use as antimicrobial and marine antifouling agents” (The Dow Chemical Company, priority 1994, dated 1996)
In brackets after ≈: the same amount, converted by molar mass. Where two headings read alike, the source gives them in different places.

Tests used:
Type in all cases: cell-based
Bacillus subtilis (Bs) = assay: Minimum inhibitory concentration (MIC) in nutrient agar, Bacillus subtilis
Protocol: (§1) The antimicrobial activity of the compounds of the present invention is set forth as the minimum inhibitory concentration (MIC) for the active compounds and is determined for nine (9) bacteria, using nutrient agar, and seven (7) yeast and fungi, using malt yeast agar. This determination is conducted using a one percent solution of the test compound prepared in a mixture of acetone and water.
(§2) Nutrient agar is prepared at pH 6.8, representing a neutral medium, and at pH 8.2, representing an alkaline medium. The nutrient agars are prepared by adding 23 g of nutrient agar to one-liter of deionized water. In addition, the alkaline medium is prepared by adjusting a 0.04M solution of N-[tris-(hydroxymethyl)methyl]glycine buffered deionized water with concentrated sodium hydroxide to a pH of 8.5.
(§3) The test tubes containing the agar are cooled in a water bath until the temperature of the agar is 48° C. Then, an appropriate amount of the one percent solution of the test compound is added (except in the controls where no compound is added) to the respective test tubes so that the final concentrations are 500, […], 100, 50, 25, 10, 5, 2.5, 1.0 and zero parts per million of the test compound in the agar, thus having a known concentration of test compound dispersed therein. The contents of the test tubes are then transferred to respective petri plates. After drying for 24 hours, the petri plates containing nutrient agar are inoculated with bacteria and those containing malt yeast agar are inoculated with yeast and fungi.
(§4) The inoculation with bacteria is accomplished by using the following procedure. Twenty-four hour-cultures of each of the bacteria are prepared by incubating the respective bacteria in tubes containing nutrient broth for 24 hours at 30° C. in a shaker. Dilutions of each of the 24 hour-cultures are made so that nine separate suspensions (one for each of the nine test bacteria) are made, each containing 10^8 colony forming units (CFU) per mL of suspension of a particular bacteria. Aliquots of 0.3 mL of each of the bacterial suspensions are used to fill the individual wells of Steer's Replicator. For each microbial suspension, 0.3 mL was used to fill three wells (i.e., three wells of 0.3 mL each) so that for the nine different bacteria, 27 wells are filled. The Steer's Replicator is then used to inoculate both the neutral and alkaline pH nutrient agar petri plates.
(§5) The inoculated petri plates are incubated at 30° C. for 48 hours and then read to determine if the test compound which is incorporated into the agar prevented growth of the respective bacteria.

[1] = test system: Enterobacter aerogenes (Ea); assay: Minimum inhibitory concentration (MIC) in nutrient agar, Enterobacter aerogenes; details: Klebsiella aerogenes, 48 h
Protocol: as §1, §2, §3, §4, §5

Escherichia coli (Ec) = assay: Minimum inhibitory concentration (MIC) in nutrient agar, Escherichia coli; details: 48 h
Protocol: as §1, §2, §3, §4, §5

[2] = test system: Klebsiella pneumoniae (Kp); assay: Minimum inhibitory concentration (MIC) in nutrient agar, Klebsiella pneumoniae
Protocol: as §1, §2, §3, §4, §5

Proteus vulgaris (Pv) = assay: Minimum inhibitory concentration (MIC) in nutrient agar, Proteus vulgaris; details: 48 h
Protocol: as §1, §2, §3, §4, §5

[3] = test system: Pseudomonas aeruginosa (PRD-10); assay: Minimum inhibitory concentration (MIC) in nutrient agar, Pseudomonas aeruginosa PRD-10; details: 48 h
Protocol: as §1, §2, §3, §4, §5

[4] = test system: Pseudomonas aeruginosa (Pa); assay: Minimum inhibitory concentration (MIC) in nutrient agar, Pseudomonas aeruginosa
Protocol: as §1, §2, §3, §4, §5

[5] = test system: Salmonella choleraesuis (Se); assay: Minimum inhibitory concentration (MIC) in nutrient agar, Salmonella choleraesuis; details: Salmonella enterica, 48 h
Protocol: as §1, §2, §3, §4, §5

[6] = test system: Staphylococcus aureus (Sa); assay: Minimum inhibitory concentration (MIC) in nutrient agar, Staphylococcus aureus
Protocol: as §1, §2, §3, §4, §5

Aspergillus niger (An) = assay: Minimum inhibitory concentration (MIC) in malt yeast agar, Aspergillus niger
Protocol: as §1
(§6) Malt yeast agar is prepared at pH 5.5 by adding 3 g yeast extract and 45 g malt agar per liter of deionized water. The specific agar is dispensed in 30 mL aliquots into 25×200 mm test tubes, capped and autoclaved for 15 minutes at 115° C.
as §3
(§7) The inoculation with the yeast and fungi is accomplished as follows. Cultures of yeast and fungi are incubated for seven days on malt yeast agar at 30° C. These cultures are used to prepare suspensions by the following procedure. A suspension of each organism is prepared by adding 10 mL of sterile saline and 10 microliters of octylphenoxy polyethoxy ethanol to the agar slant of yeast or fungi. The sterile saline/octylphenoxy potyethoxy ethanol solution is then agitated with a sterile swab to suspend the microorganism grown on the slant. Each resulting suspension is diluted into sterile saline (1 part suspension: 9 parts sterile saline). Aliquots of these dilutions are placed in individual wells of Steer's Replicator and petri plates inoculated as previously described. The petri plates are incubated at 30° C. and read after 48 hours for yeast and 72 hours for fungi.

Candida albicans (Ca) = assay: Minimum inhibitory concentration (MIC) in malt yeast agar, Candida albicans
Protocol: as §1, §6, §3, §7

[7] = test system: Penicillium chrysogenum (Pc); assay: Minimum inhibitory concentration (MIC) in malt yeast agar, Penicillium chrysogenum
Protocol: as §1, §6, §3, §7

[8] = test system: Saccharomyces cerevisiae (Sc); assay: Minimum inhibitory concentration (MIC) in malt yeast agar, Saccharomyces cerevisiae
Protocol: as §1, §6, §3, §7

Trichoderma viride (Tv) = assay: Minimum inhibitory concentration (MIC) in malt yeast agar, Trichoderma viride
Protocol: as §1, §6, §3, §7

[9] = test system: Aureobasidium pullulan (Ap); assay: Minimum inhibitory concentration (MIC) in malt yeast agar, Aureobasidium pullulan
Protocol: as §1, §6, §3, §7

Fusarium oxysporum (Fo) = assay: Minimum inhibitory concentration (MIC) in malt yeast agar, Fusarium oxysporum; details: pH 5.5; malt yeast agar, 30° C., 72 hours for fungi; read-out: Minimum Inhibitory Concentration, Fo
Protocol: as §1, §6, §3, §7

[10] = 48 h, pH 8.2, read-out: Minimum Inhibitory Concentration, Bs
[11] = pH 6.8, nutrient agar, 30° C., 48 hours, read-out: Minimum Inhibitory Concentration, Bs
[12] = pH 6.8, read-out: Minimum Inhibitory Concentration, Ea
[13] = pH 8.2, read-out: Minimum Inhibitory Concentration, Ea
[14] = pH 6.8, read-out: Minimum Inhibitory Concentration, Ec
[15] = pH 8.2, read-out: Minimum Inhibitory Concentration, Ec
[16] = pH 6.8, read-out: Minimum Inhibitory Concentration, Pv
[17] = pH 8.2, read-out: Minimum Inhibitory Concentration, Pv
[18] = pH 6.8, read-out: Minimum Inhibitory Concentration, PRD
[19] = pH 8.2, read-out: Minimum Inhibitory Concentration, PRD
[20] = pH 6.8, nutrient agar, 30° C., 48 hours, read-out: Minimum Inhibitory Concentration, Pa
[21] = pH 8.2, nutrient agar, 30° C., 48 hours, read-out: Minimum Inhibitory Concentration, Pa
[22] = pH 6.8, read-out: Minimum Inhibitory Concentration, SC
[23] = pH 8.2, read-out: Minimum Inhibitory Concentration, SC
[24] = 48 h, pH 8.2, read-out: Minimum Inhibitory Concentration, Sa
[25] = pH 6.8, nutrient agar, 30° C., 48 hours, read-out: Minimum Inhibitory Concentration, Sa
[26] = pH 5.5, malt yeast agar, 30° C., 72 hours for fungi, read-out: Minimum Inhibitory Concentration, An
[27] = pH 5.5, malt yeast agar, 30° C., 48 hours for yeast, read-out: Minimum Inhibitory Concentration, Ca
[28] = 72 h, pH 5.5, read-out: Minimum Inhibitory Concentration, PC
[29] = pH 5.5, malt yeast agar, 30° C., 48 hours for yeast, read-out: Minimum Inhibitory Concentration, SC
[30] = pH 5.5, malt yeast agar, 30° C., read-out: Minimum Inhibitory Concentration, Ap
[31] = 48 h, pH 8.2, read-out: Minimum Inhibitory Concentration, Kp
[32] = pH 6.8, nutrient agar, 30° C., 48 hours, read-out: Minimum Inhibitory Concentration, Kp
[33] = pH 5.5, malt yeast agar, 30° C., 72 hours for fungi, read-out: Minimum Inhibitory Concentration, PC
[34] = pH 5.5, malt yeast agar, 30° C., 72 hours for fungi, read-out: Minimum Inhibitory Concentration, Tv
[35] = pH 5.5, read-out: Minimum Inhibitory Concentration, Ap

| Structure (SMILES) | MIC (Bacillus subtilis (Bs); [10]) | MIC (Bacillus subtilis (Bs); [11]) | MIC [1, 12] | MIC [1, 13] | MIC (Escherichia coli (Ec); [14]) | MIC (Escherichia coli (Ec); [15]) | MIC (Proteus vulgaris (Pv); [16]) | MIC (Proteus vulgaris (Pv); [17]) | MIC [3, 18] | MIC [3, 19] | MIC [4, 20] | MIC [4, 21] | MIC [5, 22] | MIC [5, 23] | MIC [6, 24] | MIC [6, 25] | MIC (Aspergillus niger (An); [26]) | MIC (Candida albicans (Ca); [27]) | MIC [8, 29] | MIC [2, 31] | also measured |
| --- | --- | --- | --- | --- | --- | --- | --- | --- | --- | --- | --- | --- | --- | --- | --- | --- | --- | --- | --- | --- | --- |
| N#CSc1nsnc1-c1ccc(Cl)cc1 [Example II, 4-(4-Chlorophenyl)-3-thiocyanato-1,2,5-thiadiazole] | 500 µg/mL (≈ 1970 µM) | 250 µg/mL (≈ 985 µM) | > 500 µg/mL | > 500 µg/mL | 50 µg/mL (≈ 197 µM) | > 500 µg/mL | > 500 µg/mL | > 500 µg/mL | > 500 µg/mL | > 500 µg/mL | > 500 µg/mL | 500 µg/mL (≈ 1970 µM) | > 500 µg/mL | 500 µg/mL (≈ 1970 µM) | 500 µg/mL (≈ 1970 µM) | 250 µg/mL (≈ 985 µM) | < 10 µg/mL | < 10 µg/mL | < 10 µg/mL |  | MIC ([2]; 48 h, pH 6.8, read-out: Minimum Inhibitory Concentration, Kp): 50 µg/mL (≈ 197 µM); MIC ([2]; pH 8.2, nutrient agar, 30° C., 48 hours, read-out: Minimum Inhibitory Concentration, Kp): 250 µg/mL (≈ 985 µM); MIC [7, 28]: < 10 µg/mL; MIC (Trichoderma viride (Tv); 72 h, pH 5.5, read-out: Minimum Inhibitory Concentration, Tv): < 10 µg/mL; MIC [9, 30]: < 10 µg/mL; MIC (Fusarium oxysporum (Fo)): < 10 µg/mL |
| COc1cccc(-c2nsnc2SC#N)c1 [Example VII, a-(3-Methoxyphenyl)-3-thiocyanato-1,2,5-thiadiazole] | 250 µg/mL (≈ 1000 µM) | 25 µg/mL (≈ 100 µM) | > 500 µg/mL | 500 µg/mL (≈ 2010 µM) | > 500 µg/mL | 500 µg/mL (≈ 2010 µM) | > 500 µg/mL | 500 µg/mL (≈ 2010 µM) | > 500 µg/mL | 500 µg/mL (≈ 2010 µM) | > 500 µg/mL | 500 µg/mL (≈ 2010 µM) | > 500 µg/mL | 500 µg/mL (≈ 2010 µM) | 500 µg/mL (≈ 2010 µM) | 250 µg/mL (≈ 1000 µM) | 10 µg/mL (≈ 40.1 µM) |  | 5 µg/mL (≈ 20.1 µM) | 500 µg/mL (≈ 2010 µM) | MIC [2, 32]: > 500 µg/mL; MIC (Candida albicans (Ca); 48 h, pH 5.5, read-out: Minimum Inhibitory Concentration, Ca): 50 µg/mL (≈ 201 µM); MIC [7, 33]: 25 µg/mL (≈ 100 µM); MIC (Trichoderma viride (Tv); [34]): 5 µg/mL (≈ 20.1 µM); MIC [9, 35]: 5 µg/mL (≈ 20.1 µM) |
| N#CSc1nsnc1-c1ccc(C(F)(F)F)cc1 [Example X, 4-(4-Trifluoromethylphenyl)-3-thiocyanato-1,2,5-thiadiazole] | 500 µg/mL (≈ 1740 µM) | 25 µg/mL (≈ 87 µM) | > 500 µg/mL | 500 µg/mL (≈ 1740 µM) | > 500 µg/mL | 500 µg/mL (≈ 1740 µM) | > 500 µg/mL | 500 µg/mL (≈ 1740 µM) | > 500 µg/mL | 500 µg/mL (≈ 1740 µM) |  | 500 µg/mL (≈ 1740 µM) | > 500 µg/mL | 500 µg/mL (≈ 1740 µM) | 500 µg/mL (≈ 1740 µM) | > 500 µg/mL | 5 µg/mL (≈ 17.4 µM) | 5 µg/mL (≈ 17.4 µM) |  | 500 µg/mL (≈ 1740 µM) | MIC [2, 32]: > 500 µg/mL; MIC ([4]; 48 h, pH 6.8, read-out: Minimum Inhibitory Concentration, Pa): > 50 µg/mL; MIC [7, 33]: 5 µg/mL (≈ 17.4 µM); MIC ([8]; 48 h, pH 5.5, read-out: Minimum Inhibitory Concentration, SC): 2.5 µg/mL (≈ 8.7 µM); MIC (Trichoderma viride (Tv); [34]): 2.5 µg/mL (≈ 8.7 µM); MIC [9, 35]: 2.5 µg/mL (≈ 8.7 µM) |
| COC(=O)c1ccc(-c2nsnc2SC#N)cc1 [Example XII] | 500 µg/mL (≈ 1800 µM) | 25 µg/mL (≈ 90.1 µM) | 500 µg/mL (≈ 1800 µM) | 500 µg/mL (≈ 1800 µM) | 500 µg/mL (≈ 1800 µM) | 500 µg/mL (≈ 1800 µM) | 500 µg/mL (≈ 1800 µM) | 500 µg/mL (≈ 1800 µM) | 500 µg/mL (≈ 1800 µM) | 500 µg/mL (≈ 1800 µM) | 500 µg/mL (≈ 1800 µM) | 500 µg/mL (≈ 1800 µM) | 500 µg/mL (≈ 1800 µM) | 500 µg/mL (≈ 1800 µM) | 500 µg/mL (≈ 1800 µM) | 500 µg/mL (≈ 1800 µM) |  | 10 µg/mL (≈ 36.1 µM) | 10 µg/mL (≈ 36.1 µM) | 500 µg/mL (≈ 1800 µM) | MIC [2, 32]: 500 µg/mL (≈ 1800 µM); MIC (Aspergillus niger (An); 72 h, pH 5.5, read-out: Minimum Inhibitory Concentration, An): 25 µg/mL (≈ 90.1 µM); MIC [7, 28]: 100 µg/mL (≈ 361 µM); MIC [9, 30]: 10 µg/mL (≈ 36.1 µM); MIC (Fusarium oxysporum (Fo)): 10 µg/mL (≈ 36.1 µM) |
